Assay results as given in patent US6737383B1, “Herbicidal oxadiazolidines” (priority 1999, dated 2004).

Assays:
[1] = system: barnyardgrass; experiment: Test A barnyardgrass; type: in vivo, Echinochloa crus-galli; settings: 0 to 10 scale where 0 is no effect and 10 is complete control
In short: (§1)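 Injury scored visually after about eleven greenhouse days against untreated plants, 0 = no effect, 10 = complete control. Compounds, formulated in surfactant-containing non-phytotoxic solvent, were applied as preemergence soil drench to sandy loam plantings and as postemergence runoff spray at the 1–2 leaf stage.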

[2] = system: morningglory; experiment: Test A morningglory; type: in vivo, Ipomoea spp.; settings: 0 to 10 scale where 0 is no effect and 10 is complete control
In short: as §1

[3] = system: crabgrass; experiment: Test A crabgrass; type: in vivo, Digitaria spp.; settings: 0 to 10 scale where 0 is no effect and 10 is complete control
In short: as §1

[4] = system: velvetleaf; experiment: Test A velvetleaf; type: in vivo, Abutilon theophrasti; settings: 0 to 10 scale where 0 is no effect and 10 is complete control
In short: as §1

[5] = system: common ragweed; experiment: Test D common ragweed; type: in vivo, Ambrosia elatior; settings: Preemergence, 0 to 100 scale
In short: (§2)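 Greenhouse pots, seeds in sandy loam; compounds formulated in non-phytotoxic solvent with surfactant; preemergence treatments went on the soil surface within one day of planting. Injury rated visually 14 to 21 days after application on a 0 (none) to 100 (complete control) scale.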

[6] = system: itchgrass; experiment: Test D itchgrass; type: in vivo, Rottboellia exaltata; settings: Preemergence, 0 to 100 scale
In short: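 Scoring used a 0–100 visual injury scale, with 0 meaning no effect and 100 complete control, assessed 14–21 days after application alongside untreated pots. Preemergence treatments went onto sandy loam surfaces of separately potted seeds within a day of sowing.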

[7] = system: purple nutsedge; experiment: Test D purple nutsedge; type: in vivo, Cyperus rotundus; settings: Preemergence, 0 to 100 scale
In short: as §2

[8] = system: Johnson grass; experiment: Test D Johnson grass; type: in vivo, Sorghum halepense; settings: Preemergence, 0 to 100 scale
In short: as §2

[9] = system: common pursiane; experiment: Test D common purslane; type: in vivo, Portulaca oleracea; settings: Preemergence, 0 to 100 scale
In short: as §2

[10] = system: surinam grass; experiment: Test D surinam grass; type: in vivo, Brachiaria decumbens; settings: Preemergence, 0 to 100 scale
In short: as §2

[11] = system: Spanishneedles; experiment: Test D Spanishneedles; type: in vivo, Bidens bipinnata; settings: Preemergence, 0 to 100 scale
In short: as §2

[12] = system: pitted morningglory; experiment: Test D pitted morningglory; type: in vivo, Ipomoea lacunosa; settings: Preemergence, 0 to 100 scale
In short: as §2

[13] = system: dallisgrass; experiment: Test D dallisgrass; type: in vivo, Paspalum dilatatum; settings: Preemergence, 0 to 100 scale
In short: as §2

[14] = system: common groundsel; experiment: Test D common groundsel; type: in vivo, Senecio vulgaris; settings: Preemergence, 0 to 100 scale
In short: as §2

[15] = system: bermuda-grass; experiment: Test D bermudagrass; type: in vivo, Cynodon dactylon; settings: Preemergence, 0 to 100 scale
In short: as §2

[16] = system: large crabgrass; experiment: Test D large crabgrass; type: in vivo, Digitaria sanguinalis; settings: Preemergence, 0 to 100 scale
In short: as §2

[17] = system: sandbur; experiment: Test D sandbur; type: in vivo, Cenchrus echinatus; settings: Preemergence, 0 to 100 scale
In short: as §2

[18] = system: Alexandergrass; experiment: Test D Alexandergrass; type: in vivo, Brachiaria plantaginea; settings: Preemergence, 0 to 100 scale
In short: as §2

[19] = system: guineagrass; experiment: Test D guineagrass; type: in vivo, Panicum maximum; settings: Preemergence, 0 to 100 scale
In short: as §2

[20] = system: tall mallow; experiment: Test D tall mallow; type: in vivo, Malva sylvestris; settings: Preemergence, 0 to 100 scale
In short: as §2

[21] = system: Green foxtail; experiment: Test D green foxtail; type: in vivo; settings: Preemergence, 0 to 100 scale
In short: as §2

[22] = Rate 16 g/ha, 0 no injury, 100 complete control
[23] = Rate 32 g/ha, 0 no injury, 100 complete control
[24] = Rate 64 g/ha, 0 no injury, 100 complete control
[25] = Rate 125 g/ha, 0 no injury, 100 complete control

## CCc1cccc(C)c1-n1c(=O)on(C(=O)N(c2ccc(F)cc2)C(C)C)c1=O [Compound 52]
[1]; Postemergence, Rate 1000 g/ha
  Plant response rating, Barnyardgrass: 5
[1]; Pre-emergence, Rate 2000 g/ha
  Plant response rating, Barnyardgrass: 9
[2]; Postemergence, Rate 1000 g/ha
  Plant response rating, Morningglory: 1
[2]; Pre-emergence, Rate 2000 g/ha
  Plant response rating, Morningglory: 0
[3]; Postemergence, Rate 1000 g/ha
  Plant response rating, Crabgrass: 8
[3]; Pre-emergence, Rate 2000 g/ha
  Plant response rating, Crabgrass: 10
[4]; Postemergence, Rate 1000 g/ha
  Plant response rating, Velvetleaf: 1
[4]; Pre-emergence, Rate 2000 g/ha
  Plant response rating, Velvetleaf: 0

## Cc1cccc(Cl)c1-n1c(=O)on(C(=O)N(c2ccc(F)cc2)C(C)C)c1=O [Compound 53]
[1]; Postemergence, Rate 1000 g/ha
  Plant response rating, Barnyardgrass: 3
[1]; Pre-emergence, Rate 2000 g/ha
  Plant response rating, Barnyardgrass: 8
[2]; Postemergence, Rate 1000 g/ha
  Plant response rating, Morningglory: 0
[2]; Pre-emergence, Rate 2000 g/ha
  Plant response rating, Morningglory: 0
[3]; Postemergence, Rate 1000 g/ha
  Plant response rating, Crabgrass: 6
[3]; Pre-emergence, Rate 2000 g/ha
  Plant response rating, Crabgrass: 9
[4]; Postemergence, Rate 1000 g/ha
  Plant response rating, Velvetleaf: 1
[4]; Pre-emergence, Rate 2000 g/ha
  Plant response rating, Velvetleaf: 0

## C=CCn1c(=O)on(C(=O)N(c2ccc(F)cc2F)C(C)C)c1=O [Compound 151]
[5]; [22]
  Plant response rating, C. ragweed: 0
[5]; [23]
  Plant response rating, C. ragweed: 0
[5]; [24]
  Plant response rating, C. ragweed: 0
[5]; [25]
  Plant response rating, C. ragweed: 0
[5]; Rate 250 g/ha
  Plant response rating, C. ragweed: 20
[5]; Rate 500 g/ha
  Plant response rating, C. ragweed: 20
[6]; [22]
  Plant response rating, Itchgrass: 0
[6]; [23]
  Plant response rating, Itchgrass: 0
[6]; [24]
  Plant response rating, Itchgrass: 75
[6]; [25]
  Plant response rating, Itchgrass: 85
[6]; Rate 250 g/ha
  Plant response rating, Itchgrass: 100
[6]; Rate 500 g/ha
  Plant response rating, Itchgrass: 100
[7]; [22]
  Plant response rating, Purple nutsedge: 0
[7]; [23]
  Plant response rating, Purple nutsedge: 0
[7]; [24]
  Purple nutsedge plant response rating: 0
[7]; [25]
  Purple nutsedge plant response rating: 30
[7]; Rate 250 g/ha
  Plant response rating, Purple nutsedge: 65
[7]; Rate 500 g/ha
  Plant response rating, Purple nutsedge: 70
[8]; [22]
  Plant response rating Johnsongrass: 0
[8]; [23]
  Plant response rating Johnsongrass: 0
[8]; [24]
  Plant response rating Johnsongrass: 40
[8]; [25]
  Plant response rating Johnsongrass: 50
[8]; Rate 250 g/ha
  Plant response rating Johnsongrass: 50
[8]; Rate 500 g/ha
  Plant response rating Johnsongrass: 100
[9]; [22]
  Plant response rating, C. purslane: 0
[9]; [23]
  Plant response rating, C. purslane: 0
[9]; [24]
  Plant response rating, C. purslane: 0
[9]; [25]
  Plant response rating, C. purslane: 0
[9]; Rate 250 g/ha
  Plant response rating, C. purslane: 0
[9]; Rate 500 g/ha
  Plant response rating, C. purslane: 0
[10]; [22]
  Plant response rating, Surinam grass: 30
[10]; [23]
  Plant response rating, Surinam grass: 30
[10]; [24]
  Surinam grass plant response rating: 85
[10]; [25]
  Surinam grass plant response rating: 100
[10]; Rate 250 g/ha
  Plant response rating, Surinam grass: 100
[10]; Rate 500 g/ha
  Plant response rating, Surinam grass: 100
[11]; [22]
  Plant response rating, Spanishneedles: 0
[11]; [23]
  Plant response rating, Spanishneedles: 0
[11]; [24]
  Spanishneedles plant response rating: 0
[11]; [25]
  Spanishneedles plant response rating: 0
[11]; Rate 250 g/ha
  Plant response rating, Spanishneedles: 0
[11]; Rate 500 g/ha
  Plant response rating, Spanishneedles: 40
[12]; [22]
  Plant response rating, P. morninglory: 0
[12]; [23]
  Plant response rating, P. morninglory: 0
[12]; [24]
  Plant response rating, P. morninglory: 0
[12]; [25]
  Plant response rating, P. morninglory: 0
[12]; Rate 250 g/ha
  Plant response rating, P. morninglory: 0
[12]; Rate 500 g/ha
  Plant response rating, P. morninglory: 20
[13]; [22]
  Plant response rating, Dallisgrass: 100
[13]; [23]
  Plant response rating, Dallisgrass: 85
[13]; [24]
  Plant response rating, Dallisgrass: 100
[13]; [25]
  Plant response rating, Dallisgrass: 100
[13]; Rate 250 g/ha
  Plant response rating, Dallisgrass: 100
[13]; Rate 500 g/ha
  Plant response rating, Dallisgrass: 100
[14]; [22]
  Plant response rating, Com. groundsel: 0
[14]; [23]
  Plant response rating, Com. groundsel: 0
[14]; [24]
  Plant response rating, Com. groundsel: 0
[14]; [25]
  Plant response rating, Com. groundsel: 100
[14]; Rate 250 g/ha
  Plant response rating, Com. groundsel: 100
[14]; Rate 500 g/ha
  Plant response rating, Com. groundsel: 100
[15]; [22]
  Plant response rating, Bermudagrass: 90
[15]; [23]
  Plant response rating, Bermudagrass: 90
[15]; [24]
  Plant response rating, Bermudagrass: 90
[15]; [25]
  Plant response rating, Bermudagrass: 100
[15]; Rate 250 g/ha
  Plant response rating, Bermudagrass: 100
[15]; Rate 500 g/ha
  Plant response rating, Bermudagrass: 100
[16]; [22]
  Plant response rating Large crabgrass: 98
[16]; [23]
  Plant response rating Large crabgrass: 98
[16]; [24]
  Plant response rating Large crabgrass: 100
[16]; [25]
  Plant response rating Large crabgrass: 100
[16]; Rate 250 g/ha
  Plant response rating Large crabgrass: 100
[16]; Rate 500 g/ha
  Plant response rating Large crabgrass: 100
[17]; [22]
  Plant response rating, Sandbur: 0
[17]; [23]
  Plant response rating, Sandbur: 20
[17]; [24]
  Sandbur plant response rating: 90
[17]; [25]
  Sandbur plant response rating: 100
[17]; Rate 250 g/ha
  Plant response rating, Sandbur: 100
[17]; Rate 500 g/ha
  Plant response rating, Sandbur: 100
[18]; [22]
  Plant response rating, Alexandergrass: 40
[18]; [23]
  Plant response rating, Alexandergrass: 40
[18]; [24]
  Plant response rating, Alexandergrass: 98
[18]; [25]
  Plant response rating, Alexandergrass: 98
[18]; Rate 250 g/ha
  Plant response rating, Alexandergrass: 100
[18]; Rate 500 g/ha
  Plant response rating, Alexandergrass: 100
[19]; [22]
  Plant response rating, Guineagrass: 85
[19]; [23]
  Plant response rating, Guineagrass: 90
[19]; [24]
  Plant response rating, Guineagrass: 100
[19]; [25]
  Plant response rating, Guineagrass: 100
[19]; Rate 250 g/ha
  Plant response rating, Guineagrass: 100
[19]; Rate 500 g/ha
  Plant response rating, Guineagrass: 100
[20]; [22]
  Plant response rating, Tall Mallow: 0
[20]; [23]
  Plant response rating, Tall Mallow: 0
[20]; [24]
  Tall Mallow plant response rating: 0
[20]; [25]
  Tall Mallow plant response rating: 75
[20]; Rate 250 g/ha
  Plant response rating, Tall Mallow: 85
[20]; Rate 500 g/ha
  Plant response rating, Tall Mallow: 85
[21]; Rate 250 g/ha
  Plant response rating, Green foxtail: 100
[21]; Rate 500 g/ha
  Plant response rating, Green foxtail: 100

## CC(C)N(C(=O)n1oc(=O)n(N(C)C)c1=O)c1ccccc1 [Compound 225]
[1]; Postemergence, Rate 1000 g/ha
  Plant response rating, Barnyardgrass: 9
[1]; Pre-emergence, Rate 2000 g/ha
  Plant response rating, Barnyardgrass: 10
[2]; Postemergence, Rate 1000 g/ha
  Plant response rating, Morningglory: 10
[2]; Pre-emergence, Rate 2000 g/ha
  Plant response rating, Morningglory: 8
[3]; Postemergence, Rate 1000 g/ha
  Plant response rating, Crabgrass: 9
[3]; Pre-emergence, Rate 2000 g/ha
  Plant response rating, Crabgrass: 10
[4]; Postemergence, Rate 1000 g/ha
  Plant response rating, Velvetleaf: 3
[4]; Pre-emergence, Rate 2000 g/ha
  Plant response rating, Velvetleaf: 7
